Results on six compounds are retold here after patent publication US4302465A, “Therapeutically active, substituted piperidines and pyrrolidines therapeutic compositions thereof and methods of use thereof” (priority 1979, dated 1981).

Broadly, the LD50 is the dose at which mortality reaches 50%.

Where “and” joins values, the source holds several entries; their conditions need not be identical. Identical values can stand only once.

One data set deals with sciatic nerve. Description: Local anaesthetic effect in rats after perineuronal injection close to the sciatic nerve. The data set is classed as in vivo. As to conditions: for Duration of anaesthesia, Motoric Blockage / Duration of anaesthesia, Sensory Blockage: 1.0% + adr. 5 μg/ml, 10 animals, perineuronal, sciatic nerve.
A further data set has as its system rabbits. Conditions: rabbit, in vivo.
Data set [1] deals with arrhythmic heart-beats induced by ouabain. Description: Effect against arrhythmic heart-beats induced by ouabain in anaesthetized dogs. The data set is classed as in vivo. As to conditions: for Duration of regularization / Number of regularized arrhythmias (percent) / Number of regularized arrhythmias: ouabain; for Number of regularized arrhythmias: count.
Data set [2] is described as follows: in vivo. As to conditions: rat, iv.
The next data set concerns guinea pigs. The data set can be described thus: Local anaesthetic effect in guinea pigs after intracutaneous infiltration. As to conditions: for Duration of Anaesthesia: 1.0% + adrenaline 5 μg/ml, 12 animals. The data set is classed as in vivo.
Data set [3] can be described thus: in vivo. Conditions: mouse.

Consider `Cc1cccc(C)c1NC(=O)C1CCCCN1CCO` (racemic) [Substance S-1249, DL-N-(2-hydroxyethyl)pipecolinyl-2,6-dimethylanilide], for which, in the data set on sciatic nerve, the “Duration of anaesthesia, Motoric Blockage” value (“Duration … Motoric Blockage” below) is recorded as 83 ± 6 min and the “Duration of anaesthesia, Sensory Blockage” value (shortened to “Duration … Sensory Blockage”) amounted to 82 ± 6 min. Further, the “local anaesthetic effect, in words” value in the data set on sciatic nerve (perineuronal injection close to the sciatic nerve) is “equivalent local anaesthetic effect to lidocaine and mepivacaine”. Besides, the “tissue irritation, in words” value with rabbits is “considerably less tissue irritation”. In addition, the “effect against arrhythmic heart-beats induced by ouabain, in words” value (“effect … by ouabain, in words” for short) in data set [1] is “effects equivalent to lidocaine and better than mepivacaine”. In data set [1] (dose 1.0 mg/kg), the Duration of regularization is on record as 130 ± 40 min, the “Number of regularized arrhythmias (percent)” value (from here on “Number … (percent)”) came to 65% and the “Number of regularized arrhythmias” value is 13. In data set [1] (dose 2.0 mg/kg), the Duration of regularization turned out to be 280 ± 70 min, the “Number … (percent)” value was 70% and the “Number of regularized arrhythmias” value was 17. The TD50 in “in vivo [2]” stood at 103 ± 8 mg/kg. Besides, in the data set on guinea pigs, the “local anaesthetic effect, in words” value is “local anaesthetic effect of the same order of magnitude as lidocaine and mepivacaine”; the “Duration of Anaesthesia” value worked out at 140 ± 8 min. In the data set “in vivo [3]”, this compound showed an LD50 of 57 mg/kg.

Regarding `CCN(CC)CC(=O)Nc1c(C)cccc1C` [Lidocaine, lidocaine, reference compound], in the data set with sciatic nerve, the “Duration … Motoric Blockage” value is 79 ± 5 min and the “Duration … Sensory Blockage” value amounted to 77 ± 5 min. Further, in data set [1] (dose 1.0 mg/kg), the “Number … (percent)” value was 60% and the “Number of regularized arrhythmias” value turned out to be 12. In addition, in data set [1] (dose 2.0 mg/kg), the Duration of regularization stood at 220 ± 30 min, the “Number … (percent)” value was found to be 79% and the “Number of regularized arrhythmias” value is listed as 19. Also, in the data set with guinea pigs, the “Duration of Anaesthesia” value is 132 ± 7 min.

Take `Cc1cccc(C)c1NC(=O)C1CCCCN1C` (centres unmarked) [Mepivacaine, mepivacaine, reference compound]: in the data set with sciatic nerve, the “Duration … Motoric Blockage” value was 89 ± 4 min and the “Duration … Sensory Blockage” value was 87 ± 4 min. In addition, in data set [1] (dose 1.0 mg/kg), the Duration of regularization turned out to be 110 ± 20 min, the “Number … (percent)” value amounted to 50% and the “Number of regularized arrhythmias” value is 5. Moreover, in data set [1] (dose 2.0 mg/kg), the Duration of regularization came out at 185 ± 50 min; the “Number … (percent)” value is 50% and 60%; the “Number of regularized arrhythmias” value is given as 6. In the data set “in vivo [2]”, this compound came in with a TD50 of 38 ± 3 mg/kg. Moreover, in the data set on guinea pigs, the “Duration of Anaesthesia” value was found to be 152 ± 16 min. In addition, in “in vivo [3]”, the LD50 came to 31 mg/kg. Moreover, the median lethal dose (LD50) in the data set “in vivo [3]” (iv) turned out to be 31 mg/kg.

`Cc1cccc(C)c1NC(=O)C1CCCC[N+]1(C)CCO` (centres unmarked) [N-methyl-S-1249, N(quaternary-2-hydroxyethyl-N-methyl)pipecolinyl-2,6-dimethylanilide]: the “effect … by ouabain, in words” value in data set [1] is reported as “rhythm-regularizing effects”. Moreover, in data set [1] (dose 1.0 mg/kg), the Duration of regularization came to 180 ± 30 min, the “Number … (percent)” value stood at 100% and the “Number of regularized arrhythmias” value turned out to be 4. Also, in data set [1] (dose 2.0 mg/kg), the Duration of regularization is 310 ± 50 min, the “Number … (percent)” value was 100% and the “Number of regularized arrhythmias” value amounted to 4. Also, the TD50 in “in vivo [2]” was 125 mg/kg. In addition, in the data set on guinea pigs, the “local anaesthetic effect, in words” value is recorded as “local anaesthetic effect” and the “Duration of Anaesthesia” value was determined as 128 ± 12 min. For the same compound, in the data set “in vivo [3]” (iv), the LD50 is 84 mg/kg.

For `Cc1cccc(C)c1NC(=O)[C@@H]1CCCN1CCO` [Substance S-1258, L-N-(2-hydroxyethyl)prolyl-2,6-dimethylanilide], the “effect … by ouabain, in words” value in data set [1] is reported as “effective against arrhythmic heartbeats induced by ouabain”. For the same compound, in data set [1] (dose 1.0 mg/kg), the Duration of regularization is listed as 95 ± 20 min, the “Number … (percent)” value turned out to be 83% and the “Number of regularized arrhythmias” value amounted to 5. In addition, in data set [1] (dose 2.0 mg/kg), the Duration of regularization was 195 ± 40 min, the “Number … (percent)” value was determined as 67% and the “Number of regularized arrhythmias” value was determined as 4. In “in vivo [2]”, this compound returned a TD50 of 130 ± 10 mg/kg. In addition, in the data set on guinea pigs, the “local anaesthetic effect, in words” value is reported as “better local anaesthetic effect than lidocaine” and the “Duration of Anaesthesia” value was determined as 111 ± 8 min. In “in vivo [3]” (iv), this compound registered an LD50 of 110 mg/kg.

Turning to `Cc1cccc(C)c1NC(=O)C1CCCCN1CCCO` (centres unmarked) [Substance S-1265, N-(3-Hydroxypropyl)pipecolinyl-2,6-dimethylanilide], the “effect … by ouabain, in words” value in data set [1] was “effects equivalent to lidocaine and mepivacaine”. In data set [1] (dose 1.0 mg/kg), the Duration of regularization is 120 ± 30 min, the “Number … (percent)” value turned out to be 67% and the “Number of regularized arrhythmias” value turned out to be 4. In addition, in data set [1] (dose 2.0 mg/kg), the Duration of regularization is 200 ± 40 min, the “Number … (percent)” value came out at 83% and the “Number of regularized arrhythmias” value came out at 5. Further, the TD50 in the data set “in vivo [2]” was 80 ± 4 mg/kg. Besides, in the data set with guinea pigs, the “local anaesthetic effect, in words” value was “better local anaesthetic effect than lidocaine” and the “Duration of Anaesthesia” value is 151 ± 6 min. Moreover, the LD50 in “in vivo [3]” (iv) was 40 mg/kg.
